Test system: human erythrocytes
Experiment: Haemocompatibility study (haemolysis)
Format: cell-based
Settings: erythrocyte, 5 h, relative to triton X-100 100% and PBS 0%
Description: Freshly drawn human blood was centrifuged (3,000 g) to separate the red blood cells. These were washed in PBS (pH=7.4) and weighed. 3 g of the erythrocyte pellet was dispersed in 100 mL PBS (pH=7.4) and incubated for 5 h with various concentrations of GCP41, cholesterol vesicles prepared as described above or DOTAP vesicles (Sigma Chemical Co., UK). Haemolysis was assessed by centrifugation (3,000 g) to isolate the released haemoglobin, addition of 2×volume of isopropanol to the supernatant and the measurement of the absorbance (570 nm).

## CCCCCCCC/C=C\CCCCCCCC(=O)OCC(C[N+](C)(C)C)OC(=O)CCCCCCC/C=C\CCCCCCCC.COS(=O)(=O)[O-] (centres unmarked) [DOTAP, N-[1-(2,3-dioleoyloxy)propyl]-N,N,N-trimethylammonium methylsulphate]
DOTAP ratio 30
  % Haemolysis (n = 3): 101.4 ± 20.4%
DOTAP ratio 300
  % Haemolysis (n = 3): 71.0 ± 10.6%

— US20020198373A1, “PARTICULATE DRUG CARRIERS” (priority 1997, published 2002)
